According to paper PMC5643073 (ACS combinatorial science, 2017):

Columns and labels:
in vitro = conditions: human
Cytotoxicity assay = conditions: human, HEK293T cells

With `Cc1cc(SCc2sc(-c3ccc(C(F)(F)F)cc3)nc2C)ccc1OCC(=O)O` [Compound 13] the CC50 at 18 h (in vitro) was > 33 µM.
For `Cc1cc(SCc2sc(-c3ccc(C(F)(F)F)c(F)c3)nc2C)ccc1OCC(=O)O` [Compound 31], the CC50 at 18 h (Cytotoxicity assay) was > 50 µM.
